In US20230122249A1, “1H-PYRAZOLO[4,3-d]PYRIMIDINE COMPOUNDS AS TOLL-LIKE RECEPTOR 7 (TLR7) AGONISTS” (BRISTOL-MYERS SQUIBB COMPANY, priority 2020, published 2023):

What was measured:
[1] = test system: CD69 in human whole blood; test: Induction of CD69 in human whole blood (hWB); format: cell-based; conditions: heparinized human whole blood, 17 h, CD69 surface staining; 100% set to 1 uM resiquimod; average where assay repeated
Experimental: The induction of Type I interferon (IFN) MX-1 genes and the B-cell activation marker CD69 are downstream events that occur upon activation of the TLR7 pathway. The following is a human whole blood assay that measures their induction in response to a TLR7 agonist.
Heparinized human whole blood was harvested from human subjects and treated with test TLR7 agonist compounds at 1 mM. The blood was diluted with RPMI 1640 media and Echo was used to predot 10 nL per well giving a final concentration of 1 uM (10 nL in 10 uL of blood). After mixing on a shaker for 30 sec, the plates were covered and placed in a 37° C. chamber for o/n=17 hrs. Fixing/lysis buffer was prepared (5×->1×in H2O, warm at 37° C.; Cat# BD 558049) and kept the perm buffer (on ice) for later use.
For surface markers staining (CD69): prepared surface Abs: 0.045 ul hCD14-FITC (ThermoFisher Cat # MHCD1401)+0.6 ul hCD19-ef450 (ThermoFisher Cat #48-0198-42)+1.5 ul hCD69-PE (cat# BD555531)+0.855 ul FACS buffer. Added 3 ul/well, spin1000 rpm for 1 min and mixed on shaker for 30 sec, put on ice for 30 mins. Stop stimulation after 30 minutes with 70 uL of prewarmed 1×fix/lysis buffer and use Feliex mate to resuspend (15 times, change tips for each plate) and incubate at 37° C. for 10 minutes.
Centrifuge at 2000 rpm for 5 minutes aspirate with HCS plate washer, mix on shaker for 30 sec and then wash with 70 uL in dPBS and pelleted 2 xs (2000 rpm for 5 min) and 50 ul wash in FACS buffer pelleted 1 xs(2000 rpm for 5 min). Mix on shaker for 30 sec. For Intracellular markers staining (MX-1): Add 50 ul of BD Perm buffer III and mix on shaker for 30 sec. Incubate on ice for 30 minutes (in the dark). Wash with 50 uL of FACS buffer 2×(spin @2300 rpm×5 min after perm) followed by mixing on shaker for 30 sec. Resuspended in 20 ul of FACS buffer containing MX1 antibody ( )(4812)-Alexa 647: Novus Biologicals #NBP2-43704AF647) 20 ul FACS bf+0.8 ul hlgG+0.04 ul MX-1. Spin 1000 rpm for 1 min, mix on shaker for 30 se and the samples were incubated at RT in the dark for 45 minutes followed by washing 2×FACS buffer (spin @2300 rpm×5 min after perm). Resuspend 20 ul (35 uL total per well) of FACS buffer and cover with foil and place in 4° C. to read the following day. Plates were read on iQuePlus. The results were loaded into toolset and […] curves are generated in curve master. The y-axis 100% is set to 1 uM of resiquimod.

human TLR7 = target: T1, human TLR7 (Homo sapiens, UniProt Q9NYK1); test: Human TLR7 agonist activity (hTLR7 reporter) assay in HEK-Blue TLR7 cells, SEAP readout; format: cell-based; conditions: 18 h treatment, average where assay repeated
T1 construct: host or cells: HEK-Blue TLR7 cells (engineered human embryonic kidney cells)
T1 sequence (Q9NYK1 27-1049): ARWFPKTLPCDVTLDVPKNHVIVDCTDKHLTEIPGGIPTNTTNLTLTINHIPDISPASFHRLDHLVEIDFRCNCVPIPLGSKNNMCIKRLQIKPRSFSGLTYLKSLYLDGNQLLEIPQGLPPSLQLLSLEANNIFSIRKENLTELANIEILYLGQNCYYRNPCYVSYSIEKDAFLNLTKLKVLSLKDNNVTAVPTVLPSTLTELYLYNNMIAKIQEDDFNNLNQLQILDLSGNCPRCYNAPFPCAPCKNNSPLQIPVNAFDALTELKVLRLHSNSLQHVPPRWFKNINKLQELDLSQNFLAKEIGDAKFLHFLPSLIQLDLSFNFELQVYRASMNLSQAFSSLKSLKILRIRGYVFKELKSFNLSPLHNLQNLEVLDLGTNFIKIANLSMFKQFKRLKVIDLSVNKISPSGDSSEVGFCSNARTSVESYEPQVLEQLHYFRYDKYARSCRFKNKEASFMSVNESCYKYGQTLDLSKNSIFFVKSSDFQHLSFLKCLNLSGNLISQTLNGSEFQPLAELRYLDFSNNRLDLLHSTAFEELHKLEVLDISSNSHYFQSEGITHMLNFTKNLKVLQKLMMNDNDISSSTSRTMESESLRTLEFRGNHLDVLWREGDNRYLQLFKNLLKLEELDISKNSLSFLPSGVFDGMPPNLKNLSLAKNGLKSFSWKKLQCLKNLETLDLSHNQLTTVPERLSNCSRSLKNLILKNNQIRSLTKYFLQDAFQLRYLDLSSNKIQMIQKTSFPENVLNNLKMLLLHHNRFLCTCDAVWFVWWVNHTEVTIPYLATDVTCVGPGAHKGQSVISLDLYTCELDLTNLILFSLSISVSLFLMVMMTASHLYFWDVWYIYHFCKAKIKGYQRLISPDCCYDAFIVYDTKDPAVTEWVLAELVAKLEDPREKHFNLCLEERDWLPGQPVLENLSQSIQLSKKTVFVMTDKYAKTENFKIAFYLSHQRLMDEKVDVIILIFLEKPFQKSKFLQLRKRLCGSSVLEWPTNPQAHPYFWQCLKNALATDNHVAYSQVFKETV
Experimental: This procedure describes a method for assaying human TLR7 (hTLR7) agonist activity of the compounds disclosed in this specification.
HEK-Blue™ TLR7 cells were added to each well of a 384-well tissue-culture plate (15,000 cells per well) and incubated 16-18 h at 37° C., 5% CO2. Compounds (100 nl) were dispensed into wells containing the HEK-Blue™ TLR cells and the treated cells were incubated at 37° C., 5% CO2. After 18 h treatment ten microliters of freshly-prepared Quanti-Blue™ reagent (Invivogen) was added to each well, incubated for 30 min (37° C., 5% CO2) and SEAP levels measured using an Envision plate reader (OD=620 nm). The half maximal effective concentration values (EC50; compound concentration which induced a response halfway between the assay baseline and maximum) were calculated.

Row | EC50 [1] [nM] | EC50 (human TLR7) [nM] | Compound
1 | 122 | 141 | COc1cc(CN2CC3(CCOCC3)C2)ccc1Cn1ncc2nc(N)nc(NCC3CC4(C3)CC4F)c21 (stereo not shown) [Compound 117]
2 | 258 | 144 | COc1cc(CN2C[C@H]3COC[C@H]3C2)ccc1Cn1ncc2nc(N)nc(NCC3CC4(C3)CC4F)c21 (stereo partly shown) [Compound 119]
3 | 160 | 358 | COc1cc(CN2CC3(C2)CN(C(C)=O)C3)ccc1Cn1ncc2nc(N)nc(NCC3CC4(C3)CC4F)c21 (stereo not shown) [Compound 121]
4 | 413 | 214 | COc1cc(CN2CC3(CCO3)C2)ccc1Cn1ncc2nc(N)nc(NCC3CC4(C3)CC4F)c21 (stereo not shown) [Compound 127]
5 | 4.6 | 234 | COc1cc(CN2CC3(CN(C)C3)C2)ccc1Cn1ncc2nc(N)nc(NCC3CC4(CC4)C3)c21 [Compound 131]
6 | 464 | 382 | COc1cc(CN2CC3(C2)CS(=O)(=O)C3)ccc1Cn1ncc2nc(N)nc(NCC3CC4(C3)CC4(F)F)c21 (stereo not shown) [Compound 139]
7 | 244 | 266 | COc1cc(CN2C[C@@H]3C[C@H]2CN3)ccc1Cn1ncc2nc(N)nc(NCC3CC4(C3)CC4(F)F)c21 (stereo partly shown) [Compound 141]
8 | 326 | 179 | COc1cc(CN2CC3(C2)CS(=O)(=O)C3)ccc1Cn1ncc2nc(N)nc(NCC3CC4(CC4)C3)c21 (stereo not shown) [Compound 145]
9 | 8.9 | 42.5 | COc1cc(CN2CC3(CC(O)C3)C2)ccc1Cn1ncc2nc(N)nc(NCC3CC4(CC4)C3)c21 (stereo not shown) [Compound 146]
10 | 37 | 40.5 | COc1cc(CN2CC3(CC(OC)C3)C2)ccc1Cn1ncc2nc(N)nc(NCC3CC4(CC4)C3)c21 (stereo not shown) [Compound 147]
11 | 9.6 | 74.2 | COc1cc(CN2C[C@H]3CN(C)C[C@H]3C2)ccc1Cn1ncc2nc(N)nc(NCC3CC4(CC4)C3)c21 [Compound 148]
12 | 31 | 42 | COc1cc(C(=O)N2CC3(CN(C)C3)C2)ccc1Cn1ncc2nc(N)nc(NCC3CC4(C3)CC4(F)F)c21 (stereo not shown) [Compound 149]
13 | 17.2 | 9.4 | COc1cc(C(=O)N2C[C@H]3CN(C)C[C@H]3C2)ccc1Cn1ncc2nc(N)nc(NCC3CC4(C3)CC4(F)F)c21 (stereo partly shown) [Compound 150]
14 | 32.4 | 45 | COc1cc(C(=O)N2C[C@@H]3C[C@H]2CN3C)ccc1Cn1ncc2nc(N)nc(NCC3CC4(C3)CC4(F)F)c21 (stereo partly shown) [Compound 151]
15 | 152 | 167 | COc1cc(CN2CC3(CNC3)C2)ccc1Cn1ncc2nc(N)nc(NCC3CC(C4CC4)C3)c21 (stereo not shown) [Compound 152]
16 | 189 | 30.5 | COc1cc(CNC2CCC2)ccc1Cn1ncc2nc(N)nc(NCC3CC4(CCC4)C3)c21 [Compound 153]
17 | 130 | 26.9 | COc1cc(CNC2CCOCC2)ccc1Cn1ncc2nc(N)nc(NCC3CC4(CCC4)C3)c21 [Compound 154]
18 | 552 | 583 | COc1cc(CN2CC3(CNC3)C2)ccc1Cn1ncc2nc(N)nc(NCC3CC4(CCC4)C3)c21 [Compound 155]

Row | EC50 [1] [nM] | EC50 (human TLR7) [nM] | Compound
19 | 374 | 76.9 | COc1cc(CN2C[C@@H]3C[C@H]2CN3)ccc1Cn1ncc2nc(N)nc(NCC3CC4(CCC4)C3)c21 [Compound 156]
20 | 364 | 65.7 | COc1cc(CN2C[C@H]3CNC[C@H]3C2)ccc1Cn1ncc2nc(N)nc(NCC3CC4(CCC4)C3)c21 [Compound 157]
21 | 39.1 | 38 | COc1cc(CN2CC3(CC(O)C3)C2)ccc1Cn1ncc2nc(N)nc(NCC3CC4(CCC4)C3)c21 (stereo not shown) [Compound 158]
22 | 1000 | 909 | COc1cc(C(=O)N2C[C@H]3CNC[C@H]3C2)ccc1Cn1ncc2nc(N)nc(NCC3CC4(C3)CC4(F)F)c21 (stereo partly shown) [Compound 159]
23 | 268 | 705 | COc1cc(C(=O)NCCN(C)C)ccc1Cn1ncc2nc(N)nc(NCC3CC4(C3)CC4(F)F)c21 (stereo not shown) [Compound 163]
24 | 117 | 261 | COc1cc(CO)ccc1Cn1ncc2nc(N)nc(NCC3CC4(CC4)C3)c21 [Compound 166, (4-((5-amino-7-((spiro[2.3]hexan-5-ylmethyl)amino)-1H-pyrazolo[4,3-d]pyrimidin-1-yl)methyl)-3-methoxyphenyl)methanol]
25 | 1.7 | 23 | COc1cc(CN[C@H]2C[C@H](O)C2)ccc1Cn1ncc2nc(N)nc(NCC3CC4(CC4)C3)c21 [Compound 167]
26 | 3.8 | 30.4 | COc1cc(CN2CC(CCO)C2)ccc1Cn1ncc2nc(N)nc(NCC3CC4(CC4)C3)c21 [Compound 168]
27 | 4.5 | 28 | COc1cc(CN2C[C@H]3CNC[C@H]3C2)ccc1Cn1ncc2nc(N)nc(NCC3CC4(CC4)C3)c21 [Compound 169]
28 | 2.1 | 18.5 | COc1cc(CNCCO)ccc1Cn1ncc2nc(N)nc(NCC3CC4(CC4)C3)c21 [Compound 170]
29 | 2.8 | 17 | COc1cc(C(=O)N2CCNCC2)ccc1Cn1ncc2nc(N)nc(NCC3CC4(CC4)C3)c21 [Compound 171]
30 | 300 | 785 | COc1cc(C(=O)N2CC3(CNC3)C2)ccc1Cn1ncc2nc(N)nc(NCC3CC4(CC4)C3)c21 [Compound 172]
31 | 5.4 | 20.9 | COc1cc(C(=O)N2CC3(CN(C)C3)C2)ccc1Cn1ncc2nc(N)nc(NCC3CC4(CC4)C3)c21 [Compound 173]
32 | 934 | 93.1 | COc1cc(C(=O)N2CC3(COC3)C2)ccc1Cn1ncc2nc(N)nc(NCC3CC4(CC4)C3)c21 [Compound 174]
33 | 48.8 | 96.5 | COc1cc(C(=O)N2C[C@H]3CNC[C@H]3C2)ccc1Cn1ncc2nc(N)nc(NCC3CC4(CC4)C3)c21 [Compound 175]
34 | 3.6 | 10.8 | COc1cc(C(=O)N2C[C@H]3CN(C)C[C@H]3C2)ccc1Cn1ncc2nc(N)nc(NCC3CC4(CC4)C3)c21 [Compound 176]
35 | 359 | 579 | COc1cc(C(=O)N[C@H]2C[C@H](O)C2)ccc1Cn1ncc2nc(N)nc(NCC3CC4(CC4)C3)c21 [Compound 177]
